Measurements: the CheMixHub viscosity set

Assay: xn = mol fraction of the nth substance listed

CCCCCCCCCCCC(=O)OCC + CCCCCO
viscosity [mPa·s], 101.33 kPa
Conditions | x2 = 0.1 | x2 = 0.2 | x2 = 0.2999 | x2 = 0.4 | x2 = 0.4999 | x2 = 0.6 | x2 = 0.7 | x2 = 0.8 | x2 = 0.9
293.15 K | 3.228 | 3.128 | 3.064 | 3.018 | 2.992 | 2.994 | 3.044 | 3.147 | 3.437
298.15 K | 2.884 | 2.802 | 2.741 | 2.699 | 2.68 | 2.667 | 2.706 | 2.783 | 3.024
303.15 K | 2.603 | 2.515 | 2.46 | 2.424 | 2.387 | 2.383 | 2.403 | 2.479 | 2.663
308.15 K | 2.349 | 2.275 | 2.238 | 2.173 | 2.141 | 2.131 | 2.142 | 2.201 | 2.351
313.15 K | 2.12 | 2.065 | 2.014 | 1.954 | 1.926 | 1.913 | 1.919 | 1.963 | 2.074
318.15 K | 1.948 | 1.888 | 1.852 | 1.801 | 1.765 | 1.745 | 1.735 | 1.776 | 1.867
323.15 K | 1.759 | 1.699 | 1.658 | 1.601 | 1.569 | 1.546 | 1.553 | 1.584 | 1.652

CCCCC(CC)COC(C)=O (stereo not drawn) + CCCCO
viscosity [mPa·s], 101.33 kPa
Conditions | x1 = 0.0991 | x1 = 0.2017 | x1 = 0.2984 | x1 = 0.4115 | x1 = 0.5002 | x1 = 0.6078 | x1 = 0.7049 | x1 = 0.8061 | x1 = 0.9005
293.15 K | 2.681 | 2.504 | 2.344 | 2.177 | 2.052 | 1.91 | 1.791 | 1.674 | 1.572
303.15 K | 2.139 | 2.01 | 1.894 | 1.768 | 1.675 | 1.568 | 1.478 | 1.389 | 1.311
313.15 K | 1.605 | 1.529 | 1.461 | 1.386 | 1.329 | 1.264 | 1.207 | 1.151 | 1.101
323.15 K | 1.07 | 1.05 | 1.031 | 1.01 | 0.994 | 0.974 | 0.957 | 0.939 | 0.923

CCCN(CCC)CCC + CCCCO
303.15 K, 101 kPa
Conditions | viscosity [mPa·s]
x1 = 0.01186 | 2.225
x1 = 0.01943 | 2.201
x1 = 0.03035 | 2.178
x1 = 0.03999 | 2.157
x1 = 0.05088 | 2.133
x1 = 0.0617 | 2.112
x1 = 0.07408 | 2.085
x1 = 0.08019 | 2.074
x1 = 0.08635 | 2.059

ClCCCCl + CCCCO
viscosity [mPa·s], 101 kPa
Conditions | x1 = 0.0958 | x1 = 0.2016 | x1 = 0.3004 | x1 = 0.3983 | x1 = 0.5002 | x1 = 0.5993 | x1 = 0.6997 | x1 = 0.7997 | x1 = 0.9
298.15 K | 2.139 | 1.773 | 1.512 | 1.32 | 1.177 | 1.071 | 0.9963 | 0.9461 | 0.9256
313.15 K | 1.488 | 1.261 | 1.101 | 0.9831 | 0.8935 | 0.8317 | 0.7876 | 0.76 | 0.7528

CCN(CC)c1ccccc1 + CCCCOCCO
viscosity [mPa·s], 101.3 kPa
Conditions | x2 = 0.0979 | x2 = 0.2008 | x2 = 0.289 | x2 = 0.3526 | x2 = 0.4964 | x2 = 0.5968 | x2 = 0.7021 | x2 = 0.794 | x2 = 0.8979
298 K | 1.87 | 1.887 | 1.923 | 1.968 | 2.102 | 2.198 | 2.343 | 2.461 | 2.631
303 K | 1.679 | 1.686 | 1.711 | 1.756 | 1.853 | 1.942 | 2.067 | 2.175 | 2.305
308 K | 1.511 | 1.516 | 1.538 | 1.572 | 1.655 | 1.731 | 1.844 | 1.927 | 2.048
313 K | 1.369 | 1.371 | 1.393 | 1.429 | 1.487 | 1.552 | 1.65 | 1.725 | 1.824
318 K | 1.248 | 1.249 | 1.262 | 1.286 | 1.365 | 1.402 | 1.481 | 1.544 | 1.631

CCCCCCCCCCCC(=O)OCC + CCCO
viscosity [mPa·s], 101.33 kPa
Conditions | x2 = 0.1001 | x2 = 0.2003 | x2 = 0.3 | x2 = 0.3999 | x2 = 0.5 | x2 = 0.5999 | x2 = 0.7 | x2 = 0.8 | x2 = 0.9
293.15 K | 3.214 | 3.059 | 2.924 | 2.798 | 2.671 | 2.547 | 2.426 | 2.307 | 2.215
298.15 K | 2.875 | 2.742 | 2.62 | 2.504 | 2.398 | 2.286 | 2.175 | 2.078 | 1.997
303.15 K | 2.579 | 2.464 | 2.353 | 2.252 | 2.15 | 2.052 | 1.956 | 1.869 | 1.786
308.15 K | 2.32 | 2.218 | 2.12 | 2.025 | 1.936 | 1.845 | 1.756 | 1.674 | 1.6
313.15 K | 2.108 | 2.013 | 1.919 | 1.833 | 1.749 | 1.669 | 1.59 | 1.513 | 1.44
318.15 K | 1.935 | 1.849 | 1.767 | 1.688 | 1.609 | 1.531 | 1.454 | 1.381 | 1.315
323.15 K | 1.748 | 1.67 | 1.595 | 1.522 | 1.451 | 1.382 | 1.315 | 1.251 | 1.188

CCCC[NH3+].O=[N+]([O-])[O-] + CCCO
Conditions | viscosity [mPa·s]
293.15 K, 101 kPa, x1 = 0.9008 | 83.35

Clc1ccc(Cl)c(Cl)c1 + CCNc1ccccc1
viscosity [mPa·s], 101 kPa
Conditions | 303.15 K | 308.15 K
x2 = 0.0875 | 1.784 | 1.618
x2 = 0.1559 | 1.783 | 1.615
x2 = 0.2286 | 1.782 | 1.612
x2 = 0.2938 | 1.781 | 1.609
x2 = 0.3656 | 1.779 | 1.607
x2 = 0.4225 | 1.777 | 1.604
x2 = 0.4952 | 1.775 | 1.6
x2 = 0.5659 | 1.772 | 1.595
x2 = 0.6359 | 1.768 | 1.589
x2 = 0.7025 | 1.763 | 1.584
x2 = 0.7812 | 1.758 | 1.577
x2 = 0.8525 | 1.752 | 1.571
x2 = 0.9199 | 1.748 | 1.565

CCCC(C)CO (stereo not drawn) + CCO
298.15 K, 101.33 kPa
Conditions | viscosity [mPa·s]
x2 = 0.1048 | 4.615
x2 = 0.2134 | 3.996
x2 = 0.3147 | 3.481
x2 = 0.4122 | 3.014
x2 = 0.5011 | 2.664
x2 = 0.6144 | 2.253
x2 = 0.7136 | 1.884
x2 = 0.7984 | 1.623
x2 = 0.9049 | 1.303

CC[n+]1ccn(C)c1.NCC(=O)[O-] + CCn1cc[n+](C)c1.N#C[C-](C#N)C#N
Conditions | viscosity [mPa·s]
313.15 K, 101 kPa, x2 = 0.5001 | 22.25

CCCC(C)CO (stereo not drawn) + CO
298.15 K, 101.33 kPa
Conditions | viscosity [mPa·s]
x2 = 0.0849 | 4.645
x2 = 0.2146 | 3.757
x2 = 0.3193 | 3.053
x2 = 0.4183 | 2.526
x2 = 0.5192 | 2.018
x2 = 0.6077 | 1.676
x2 = 0.7069 | 1.296
x2 = 0.8045 | 1.018
x2 = 0.9002 | 0.7552

CN1CCOC1=O + CS(C)=O
viscosity [mPa·s], 101.33 kPa
Conditions | 298.15 K | 308.15 K | 318.15 K
x1 = 0.0465 | 2.004 | 1.663 | 1.404
x1 = 0.0841 | 2.012 | 1.673 | 1.413
x1 = 0.1676 | 2.037 | 1.698 | 1.437
x1 = 0.2419 | 2.06 | 1.72 | 1.459
x1 = 0.3415 | 2.09 | 1.751 | 1.49
x1 = 0.4275 | 2.126 | 1.782 | 1.518
x1 = 0.5401 | 2.171 | 1.826 | 1.558
x1 = 0.6395 | 2.218 | 1.872 | 1.603
x1 = 0.7524 | 2.28 | 1.923 | 1.645
x1 = 0.8785 | 2.359 | 1.99 | 1.703
x1 = 0.9514 | 2.415 | 2.038 | 1.744

CC1(C)OC1C#N (stereo not drawn) + ClC(Cl)(Cl)Cl
viscosity [mPa·s], 101 kPa
Conditions | 293.15 K | 298.15 K | 303.15 K | 313.15 K | 323.15 K
x1 = 0.009 | 0.983 | 0.938 | 0.906 | 0.779 | 0.67
x1 = 0.087 | 0.98 | 0.937 | 0.877 | 0.754 | 0.675

CCCCCCCCCCBr + ClC(Cl)(Cl)Cl
101 kPa
Conditions | viscosity [mPa·s]
297.75 K, x1 = 0.0484 | 0.9823
297.75 K, x1 = 0.0969 | 1.057
297.75 K, x1 = 0.1945 | 1.208
297.75 K, x1 = 0.3918 | 1.52
297.75 K, x1 = 0.5923 | 1.858
297.75 K, x1 = 0.7944 | 2.106
303.95 K, x1 = 0.0456 | 0.8918
303.95 K, x1 = 0.0914 | 0.9574
303.95 K, x1 = 0.1852 | 1.105
303.95 K, x1 = 0.2667 | 1.2
303.95 K, x1 = 0.5802 | 1.618
303.95 K, x1 = 0.7825 | 1.864
313.55 K, x1 = 0.0457 | 0.7792
313.55 K, x1 = 0.092 | 0.8323
313.55 K, x1 = 0.1856 | 0.948
313.55 K, x1 = 0.378 | 1.171
313.55 K, x1 = 0.5776 | 1.377
313.55 K, x1 = 0.7832 | 1.562

S + ClC(Cl)Cl
298.15 K, 101 kPa
Conditions | viscosity [mPa·s]
x1 = 0.00673 | 0.5257
x1 = 0.00998 | 0.5206
